Molecular target: T1, hVR1 (Homo sapiens, UniProt Q8NER1)
T1 construct: expressed in transfected cells
Assay: hVR1 FLIPR (Fluorometric Image Plate Reader) screening assay, IC50 determination
Format: cell-based
Conditions: CHO cells stably expressing hVR1
Experimental: 1. hVR1FLIPR (Fluorometric Image Plate Reader) Screening Assay
Transfected CHO cells, stably expessing hVR1 (15,000 cells/well) are seeded in 50 ul media in a black clear bottom 384 plate (Greiner) and grown in a humidified incubator (37° C., 2% CO2), 24-30 hours prior to experiment.
Subsequently, the media is removed from the cell plate by inversion and 2 μM Fluo-4 is added using a multidrop (Labsystems). Following the 40 minutes dye incubation in the dark at 37° C. and 2% CO2, the extracellular dye present is washed away using an EMBLA (Scatron), leaving the cells in 40 ul of assay buffer (1×HBSS, 10 mM D-Glucose, 1 mM CaCl2, 10 mM HEPES, 10×7.5% NaHCO3 and 2.5 mM Probenecid).
FLIPR Assay—IC50 Determination Protocol
For IC50 determinations the fluorescence is read using FLIPR filter 1 (em […]). A cellular baseline recording is taken for 30 seconds, followed by a 20 μl addition of 10, titrated half-log concentrations of the test compound, yielding cellular concentration ranging from 3 μM to 0.1 nM. Data is collected every 2 seconds for a further 5 minutes prior to the addition of a VR1 agonist solution: either 50 nM solution of capsaicin or MES (2-[N-morpholino]ethanesulfonic acid) buffer (pH 5.2), by the FLIPR pipettor. The FLIPR continues to collect data for a further 4 minutes. Compounds having antagonistic properties against the hVR1 will inhibit the increase in intracellular calcium in response to the capsaicin addition. This consequently leading to a reduction in fluorescence signal and providing a reduced fluorescence reading, compared with no compound, buffer controls. Data is exported by the FLIPR program as a sum of fluorescence calculated under the curve upon the addition of capsaicin. Maximum inhibition, Hill slope and IC50 data for each compound are generated.

[1] = agonist low pH (MES buffer pH 5.2)

T1 sequence (Q8NER1 whole entry): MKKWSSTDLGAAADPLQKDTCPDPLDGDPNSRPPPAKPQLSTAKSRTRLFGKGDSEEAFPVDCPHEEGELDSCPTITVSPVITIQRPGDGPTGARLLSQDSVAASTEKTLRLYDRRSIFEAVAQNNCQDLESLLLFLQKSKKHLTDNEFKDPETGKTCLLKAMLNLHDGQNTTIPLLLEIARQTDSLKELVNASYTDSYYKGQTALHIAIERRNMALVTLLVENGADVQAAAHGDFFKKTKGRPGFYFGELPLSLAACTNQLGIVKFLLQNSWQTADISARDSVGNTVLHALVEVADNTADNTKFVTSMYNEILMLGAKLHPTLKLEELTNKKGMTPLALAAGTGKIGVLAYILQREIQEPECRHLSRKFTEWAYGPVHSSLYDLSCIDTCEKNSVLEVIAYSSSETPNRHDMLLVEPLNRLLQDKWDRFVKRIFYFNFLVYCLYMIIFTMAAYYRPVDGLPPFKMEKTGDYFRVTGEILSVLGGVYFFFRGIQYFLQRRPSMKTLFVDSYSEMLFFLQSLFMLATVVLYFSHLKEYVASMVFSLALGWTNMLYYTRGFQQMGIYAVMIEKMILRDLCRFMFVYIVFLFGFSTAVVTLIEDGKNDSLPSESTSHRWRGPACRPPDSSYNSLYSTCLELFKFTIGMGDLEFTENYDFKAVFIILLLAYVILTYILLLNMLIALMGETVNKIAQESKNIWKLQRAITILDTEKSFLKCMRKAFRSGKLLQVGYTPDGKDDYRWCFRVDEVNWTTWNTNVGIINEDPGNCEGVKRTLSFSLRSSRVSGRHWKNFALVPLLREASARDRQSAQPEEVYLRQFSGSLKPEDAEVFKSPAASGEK

Row | IC50 (agonist capsaicin (50 nM)) [nM] | IC50 [1] [nM] | SMILES
1 | 48 | 108 | O=C(Cn1cnc2cccc([N+](=O)[O-])c21)Nc1cc(F)c(F)c(F)c1 [Example 14, 2-(7-Nitro-1H-benzimidazol-1-yl)-N-(3,4,5-trifluorophenyl)acetamide]
2 | 518 | 508 | COc1cc(NC(=O)Cn2cnc3cccc(C(C)=O)c32)cc(OC)c1 [Example 35, 2-(7-Acetyl-1H-benzimidazol-1-yl)-N-(3,5-dimethoxyphenyl)acetamide]
3 | 77 | 53 | COc1cc(NC(=O)Cn2cnc3cccc(C(C)=O)c32)cc(C(F)(F)F)c1 [Example 32, 2-(7-Acetyl-1H-benzimidazol-1-yl)-N-[3-methoxy-5-(trifluoromethyl)phenyl]acetamide]
4 | 22 | 45 | COCCOc1cc(NC(=O)Cn2cnc3cccc([N+](=O)[O-])c32)cc(OC)c1 [Example 10, N-[3-Methoxy-5-(2-methoxyethoxy)phenyl]-2-(7-nitro-1H-benzimidazol-1-yl)acetamide]

Reference: US20080015222A1, “New Heterocyclic Amides” (ASTRAZENECA AB, priority 2004, published 2008)
